What all share (assay type): in vivo
One test deals with chemical burns. In words: Topical composition in a patient with chemical burns (Example D). Particulars: 0.20% w/v topical composition at each dressing change (b.i.d.). The source says:
An topical composition for local administration, according to the present invention, is made comprising:
A patient suffering from chemical burns applies the composition at each dressing change (b.i.d.).

The next test concerns osteoarthritis. As to the kind of experiment: Treatment of an osteoarthritis patient with oral capsules (Example B). To be noted: human male, capsule with 70 mg daily for 5 years. How it is done:
A capsule for oral administration, according to the present invention, is made comprising:
A human subject weighing 90 kg (198 lbs), suffering from osteoarthritis, is treated by a method of this invention. Specifically, for 5 years, a capsule containing 70 mg of Example 3 is administered daily to said subject.

A further test deals with premetastatic tumor. As to the kind of experiment: Injection beside a premetastatic tumor in a human subject (Example G). Particulars: 100 mg/ml suspension, approx. 2.0 ml injected beside the tumor twice daily, after 30 days. The method, then: A composition for parenteral administration is made comprising: The above ingredients are mixed, forming a suspension. Approximately 2.0 ml of the suspension is administered, via injection, to a human subject with a premetastatic tumor. The injection site juxtaposes the tumor. This dosage is repeated twice daily, for approximately 30 days.

The test system of another test is rheumatoid arthritis. In words: Treatment of a rheumatoid arthritis patient with oral tablets (Example A). Particulars: human female, three 15 mg tablets per day orally for 2 years. How it is done:
A tablet composition for oral administration, according to the present invention, is made comprising:
A human subject weighing 60 kg (132 lbs), suffering from rheumatoid arthritis, is treated by a method of this invention. Specifically, for 2 years, a regimen of three tablets per day is administered orally to said subject.

For the compound `COc1ccc(S(=O)(=O)N2CN(Cc3ccccc3)C(=O)C(C)(C)C2C(=O)NO)cc1` (racemic) [Example 3, N-Hydroxy 1-Benzyl-5,5-dimethyl-3-[(4-methoxyphenyl)sulfonyl]-6-oxo-hexahydro-pyrimidine-4(R,S)-carboxamide], the scarring result with chemical burns is reported as “Scarring is substantially diminished”. For the same compound, the “erosion/fibrillation of the articular cartilage, examined via orthoscopy” value in the test with osteoarthritis is on record as “no further advancement of erosion/fibrillation of the articular cartilage”.
For `COc1ccc(S(=O)(=O)N2CCN(C(C)C)C(=O)C[C@@H]2C(=O)NO)cc1` [Example 4, N-Hydroxy 1-(1-Methylethyl)-4-[(4-methoxyphenyl)sulfonylamino]-7-oxo-1,4-diazepine-5(R)-carboxamide], the “symptoms of the disease” value in the test on premetastatic tumor is “symptoms of the disease subside”.
As to `COc1ccc(S(=O)(=O)N2CCSCCC2C(=O)NO)cc1` (centres unmarked) [Example 9, N-Hydroxy-4-[(4-methoxyphenyl)sulfonyl]-thiazepine-5-carboxamide], in the test on rheumatoid arthritis, the “inflammation at the end of the treatment period” value is on record as “reduced inflammation”; the “mobility and pain at the end of the treatment period” value is recorded as “improved mobility without concomitant pain”.
